Experimental findings from ChEMBL document CHEMBL2413064, “Synthesis and α-glucosidase inhibitory activity evaluation of N-substituted aminomethyl-β-d-glucopyranosides” (Bioorg Med Chem, 2013) are described below.

For one test, the target named is Alpha-glucosidase MAL12 (Saccharomyces cerevisiae S288c, UniProt P53341). The experiment in a line: Inhibition of Saccharomyces cerevisiae alpha-glucosidase assessed as 4-nitrophenol release from 4-nitrophenyl alpha-D-glucopyranoside preincubated for 15 mins measured after 15 mins.
The target in test [1] is T1, Sucrase-isomaltase, intestinal (Rattus norvegicus, UniProt P23739). Description: Inhibition of rat intestinal sucrase using sucrose as substrate assessed as D-glucose release from substrate preincubated for 15 mins measured after 60 mins.
Test [2] has as its target Maltase-glucoamylase, intestinal (Rattus norvegicus).
Test [3] concerns the target T1, Sucrase-isomaltase, intestinal. The experiment in a line: Competitive inhibition of rat intestinal sucrase using sucrose as substrate by Lineweaver-Burk plot analysis.

Chain of Alpha-glucosidase MAL12 (P53341 whole entry): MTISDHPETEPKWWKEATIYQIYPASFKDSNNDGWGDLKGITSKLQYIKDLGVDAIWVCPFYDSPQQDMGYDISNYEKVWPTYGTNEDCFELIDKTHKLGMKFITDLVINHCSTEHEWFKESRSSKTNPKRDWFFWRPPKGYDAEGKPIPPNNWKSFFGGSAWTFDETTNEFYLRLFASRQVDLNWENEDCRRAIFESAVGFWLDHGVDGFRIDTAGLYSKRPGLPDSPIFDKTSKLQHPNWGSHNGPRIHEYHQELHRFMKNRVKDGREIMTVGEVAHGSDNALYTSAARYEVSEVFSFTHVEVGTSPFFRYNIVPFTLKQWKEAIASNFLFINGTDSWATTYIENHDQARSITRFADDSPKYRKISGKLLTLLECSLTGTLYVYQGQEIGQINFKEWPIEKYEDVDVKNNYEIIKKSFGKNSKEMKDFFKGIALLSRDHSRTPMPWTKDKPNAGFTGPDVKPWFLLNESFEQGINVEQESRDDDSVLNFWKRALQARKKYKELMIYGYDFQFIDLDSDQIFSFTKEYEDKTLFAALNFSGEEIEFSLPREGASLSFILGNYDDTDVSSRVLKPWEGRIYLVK
T1 sequence (P23739 1-1013 limits assumed): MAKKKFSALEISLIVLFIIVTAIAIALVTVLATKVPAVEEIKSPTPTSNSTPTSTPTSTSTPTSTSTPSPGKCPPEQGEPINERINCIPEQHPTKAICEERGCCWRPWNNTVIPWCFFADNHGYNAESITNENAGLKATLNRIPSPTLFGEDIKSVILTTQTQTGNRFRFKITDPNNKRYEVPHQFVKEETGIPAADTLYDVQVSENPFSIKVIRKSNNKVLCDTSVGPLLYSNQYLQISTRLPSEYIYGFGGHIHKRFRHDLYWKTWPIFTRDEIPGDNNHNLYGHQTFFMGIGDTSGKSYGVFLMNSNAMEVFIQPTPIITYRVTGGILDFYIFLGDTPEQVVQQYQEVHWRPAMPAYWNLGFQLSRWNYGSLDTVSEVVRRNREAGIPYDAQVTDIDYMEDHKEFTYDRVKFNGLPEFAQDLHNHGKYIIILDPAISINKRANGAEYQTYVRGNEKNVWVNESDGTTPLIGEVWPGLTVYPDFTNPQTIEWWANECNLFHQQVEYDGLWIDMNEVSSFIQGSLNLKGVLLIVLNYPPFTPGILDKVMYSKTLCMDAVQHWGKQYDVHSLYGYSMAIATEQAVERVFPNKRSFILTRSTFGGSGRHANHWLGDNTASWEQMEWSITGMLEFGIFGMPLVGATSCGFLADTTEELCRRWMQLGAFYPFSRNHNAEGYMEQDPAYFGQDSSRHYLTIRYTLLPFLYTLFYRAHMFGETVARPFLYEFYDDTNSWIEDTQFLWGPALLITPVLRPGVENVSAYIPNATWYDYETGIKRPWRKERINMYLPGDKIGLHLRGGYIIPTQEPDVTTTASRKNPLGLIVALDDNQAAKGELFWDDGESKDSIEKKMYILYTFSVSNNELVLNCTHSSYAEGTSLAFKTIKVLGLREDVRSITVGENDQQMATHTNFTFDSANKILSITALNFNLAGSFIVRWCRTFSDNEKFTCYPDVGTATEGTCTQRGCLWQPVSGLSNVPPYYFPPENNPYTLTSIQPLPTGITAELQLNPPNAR
T1 sequence (P23739 1014-1841 limits assumed): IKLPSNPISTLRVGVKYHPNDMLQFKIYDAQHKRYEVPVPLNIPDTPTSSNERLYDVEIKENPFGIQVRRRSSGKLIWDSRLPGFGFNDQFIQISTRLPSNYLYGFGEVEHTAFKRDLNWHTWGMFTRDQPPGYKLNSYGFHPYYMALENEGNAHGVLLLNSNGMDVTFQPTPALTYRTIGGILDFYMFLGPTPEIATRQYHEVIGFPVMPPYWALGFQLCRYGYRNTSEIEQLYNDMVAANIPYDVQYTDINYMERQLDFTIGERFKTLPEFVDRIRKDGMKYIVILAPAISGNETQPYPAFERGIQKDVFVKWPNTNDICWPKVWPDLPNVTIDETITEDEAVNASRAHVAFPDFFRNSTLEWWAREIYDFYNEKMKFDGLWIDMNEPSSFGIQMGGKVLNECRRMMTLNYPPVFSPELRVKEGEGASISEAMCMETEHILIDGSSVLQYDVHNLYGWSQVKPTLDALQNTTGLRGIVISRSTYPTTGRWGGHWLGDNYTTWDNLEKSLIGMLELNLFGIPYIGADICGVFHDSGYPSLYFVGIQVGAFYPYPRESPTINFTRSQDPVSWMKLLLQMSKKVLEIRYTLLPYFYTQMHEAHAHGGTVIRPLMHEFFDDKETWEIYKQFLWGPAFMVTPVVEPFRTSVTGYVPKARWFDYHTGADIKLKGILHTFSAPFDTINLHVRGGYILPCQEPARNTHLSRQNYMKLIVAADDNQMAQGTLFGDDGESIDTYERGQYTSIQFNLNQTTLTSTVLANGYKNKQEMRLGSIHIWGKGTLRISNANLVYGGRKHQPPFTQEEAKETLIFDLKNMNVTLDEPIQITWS

With `Cc1ccc(S(=O)(=O)NC[C@@H]2O[C@H](CO)[C@@H](O)[C@H](O)[C@H]2O)cc1`, the IC50 on Alpha-glucosidase MAL12 was 101 µM; in test [1], 1420 µM; in test [2] it was 476 µM.
Consider `OC[C@H]1O[C@@H](CNC/C=C/c2ccccc2)[C@H](O)[C@@H](O)[C@@H]1O`, for which the IC50 was determined as 116 µM at Alpha-glucosidase MAL12 and 97.4 µM in test [1].
With `O=C(NC[C@@H]1O[C@H](CO)[C@@H](O)[C@H](O)[C@H]1O)c1ccccc1`, the half-inhibitory concentration (IC50) on Alpha-glucosidase MAL12 is 499 µM; in test [1] it was over 2000 µM; in test [2], 842 µM.
With `O=C(NC[C@@H]1O[C@H](CO)[C@@H](O)[C@H](O)[C@H]1O)c1ccc(Cl)cc1Cl`, the IC50 at Alpha-glucosidase MAL12 worked out at 466 µM; in test [1], 991 µM; in test [2] it was 585 µM.
With `O=C(NC[C@@H]1O[C@H](CO)[C@@H](O)[C@H](O)[C@H]1O)c1ccc(F)cc1`, the values for the 50% inhibitory concentration (IC50) (on Alpha-glucosidase MAL12; in test [1]; in test [2]) were 1520 µM, 403 µM and 464 µM, respectively.
For `O=C(NC[C@@H]1O[C@H](CO)[C@@H](O)[C@H](O)[C@H]1O)c1cccc([N+](=O)[O-])c1`, the IC50 came to 283 µM at Alpha-glucosidase MAL12 and 381 µM in test [1].
Take `O=C(NC[C@@H]1O[C@H](CO)[C@@H](O)[C@H](O)[C@H]1O)c1ccc([N+](=O)[O-])cc1`: the half-inhibitory concentration (IC50) on Alpha-glucosidase MAL12 was 36.2 µM; in test [1] it was 1000 µM; in test [2], 846 µM.
With `O=C(NC[C@@H]1O[C@H](CO)[C@@H](O)[C@H](O)[C@H]1O)c1ccccc1O`, the values for the IC50 (at Alpha-glucosidase MAL12; in test [1]; in test [2]) were 470 µM, over 2000 µM and 1010 µM, respectively.
Consider `COc1ccccc1C(=O)NC[C@@H]1O[C@H](CO)[C@@H](O)[C@H](O)[C@H]1O`, for which the values for the IC50 (at Alpha-glucosidase MAL12; in test [1]; in test [2]) were 471 µM, 1090 µM and 719 µM, respectively.
In the case of `O=C(NC[C@@H]1O[C@H](CO)[C@@H](O)[C@H](O)[C@H]1O)c1ccc(O)cc1`, the IC50 on Alpha-glucosidase MAL12 turned out to be 1910 µM; in test [1], 1640 µM; in test [2], 758 µM.
As to `COc1ccc(C(=O)NC[C@@H]2O[C@H](CO)[C@@H](O)[C@H](O)[C@H]2O)cc1`, the values for the half-maximal inhibitory concentration (IC50) (on Alpha-glucosidase MAL12; in test [1]; in test [2]) were 231 µM, 795 µM and 831 µM, respectively.
Turning to `COc1ccc(C(=O)NC[C@@H]2O[C@H](CO)[C@@H](O)[C@H](O)[C@H]2O)c(OC)c1`, the IC50 on Alpha-glucosidase MAL12 was 1860 µM; in test [1], over 2000 µM.
In the case of `CC(=O)Oc1ccc(C(=O)NC[C@@H]2O[C@H](CO)[C@@H](O)[C@H](O)[C@H]2O)cc1`, the IC50 on Alpha-glucosidase MAL12 was determined as 96.5 µM; in test [1] it was 160 µM; in test [2], 165 µM.
`O=C(NC[C@@H]1O[C@H](CO)[C@@H](O)[C@H](O)[C@H]1O)c1ccco1`: the IC50 came out at 534 µM at Alpha-glucosidase MAL12 and 770 µM in test [1].
On to `O=C(NC[C@@H]1O[C@H](CO)[C@@H](O)[C@H](O)[C@H]1O)c1cccs1`, for which the figures for the IC50 (at Alpha-glucosidase MAL12; in test [1]; in test [2]) were 325 µM, over 2000 µM and 445 µM, respectively.
Turning to `CC(=O)Oc1cc(C(=O)NC[C@@H]2O[C@H](CO)[C@@H](O)[C@H](O)[C@H]2O)cc(OC(C)=O)c1OC(C)=O`, the half-inhibitory concentration (IC50) came out at 225 µM at Alpha-glucosidase MAL12, 15.6 µM in test [1] and 7.7 µM in test [2].
Regarding `O=C(/C=C/c1ccccc1)NC[C@@H]1O[C@H](CO)[C@@H](O)[C@H](O)[C@H]1O`, the IC50 at Alpha-glucosidase MAL12 amounted to 2.3 µM; in test [1], 314 µM.
`O=C(/C=C/c1ccc(O)cc1)NC[C@@H]1O[C@H](CO)[C@@H](O)[C@H](O)[C@H]1O`: the IC50 at Alpha-glucosidase MAL12 was 5.6 µM; in test [1] it was 405 µM.
`CC(=O)Oc1ccc(/C=C/C(=O)NC[C@@H]2O[C@H](CO)[C@@H](O)[C@H](O)[C@H]2O)cc1`: the values for the IC50 (on Alpha-glucosidase MAL12; in test [1]) were 142 µM and 155 µM, respectively.
Take `COc1cc(/C=C/C(=O)NC[C@@H]2O[C@H](CO)[C@@H](O)[C@H](O)[C@H]2O)ccc1O`: the IC50 was determined as 102 µM at Alpha-glucosidase MAL12, 253 µM in test [1] and 382 µM in test [2].
Turning to `CC(=O)Oc1ccc(/C=C/C(=O)NC[C@@H]2O[C@H](CO)[C@@H](O)[C@H](O)[C@H]2O)cc1OC(C)=O`, the IC50 at Alpha-glucosidase MAL12 came out at 355 µM; in test [1], 10.4 µM. Also, affinity in test [3] was put at a Ki of 17.1 µM.
Consider `OC[C@H]1O[C@@H](CNCc2ccccc2)[C@H](O)[C@@H](O)[C@@H]1O`, for which the IC50 at Alpha-glucosidase MAL12 amounted to 39.2 µM; in test [1] it was 270 µM; in test [2], 1330 µM.
Take `OC[C@H]1O[C@@H](CNCc2ccc(Cl)cc2Cl)[C@H](O)[C@@H](O)[C@@H]1O`: the IC50 was 318 µM on Alpha-glucosidase MAL12 and 154 µM in test [1].
For `OC[C@H]1O[C@@H](CNCc2ccc(Cl)c(Cl)c2)[C@H](O)[C@@H](O)[C@@H]1O`, the IC50 on Alpha-glucosidase MAL12 was found to be 613 µM; in test [1], 144 µM; in test [2] it was 221 µM.
For `OC[C@H]1O[C@@H](CNCc2ccc(F)cc2)[C@H](O)[C@@H](O)[C@@H]1O`, the IC50 at Alpha-glucosidase MAL12 amounted to 115 µM; in test [1], 301 µM; in test [2], 202 µM.
For `O=[N+]([O-])c1cccc(CNC[C@@H]2O[C@H](CO)[C@@H](O)[C@H](O)[C@H]2O)c1`, in that order: 44.3 µM, 627 µM and 714 µM.
Take `OC[C@H]1O[C@@H](CNCc2ccccc2O)[C@H](O)[C@@H](O)[C@@H]1O`: the 50% inhibitory concentration (IC50) was 156 µM on Alpha-glucosidase MAL12 and 181 µM in test [1].
For `OC[C@H]1O[C@@H](CNCc2ccc(O)cc2)[C@H](O)[C@@H](O)[C@@H]1O`, in that order: 149 µM and 124 µM.
Regarding `COc1ccc(CNC[C@@H]2O[C@H](CO)[C@@H](O)[C@H](O)[C@H]2O)cc1`, the IC50 on Alpha-glucosidase MAL12 was determined as 457 µM; in test [1], 179 µM; in test [2], 306 µM.
For the compound `COc1ccc(CNC[C@@H]2O[C@H](CO)[C@@H](O)[C@H](O)[C@H]2O)cc1O`, the values for the concentration for half-maximal inhibition (IC50) (at Alpha-glucosidase MAL12; in test [1]; in test [2]) were 465 µM, 186 µM and 407 µM, respectively.
As for `COc1cc(CNC[C@@H]2O[C@H](CO)[C@@H](O)[C@H](O)[C@H]2O)ccc1O`, the IC50 on Alpha-glucosidase MAL12 worked out at 377 µM; in test [1] it was 186 µM; in test [2] it was 223 µM.
As to `COc1ccc(CNC[C@@H]2O[C@H](CO)[C@@H](O)[C@H](O)[C@H]2O)c(OC)c1`, the concentration for half-maximal inhibition (IC50) on Alpha-glucosidase MAL12 was 622 µM; in test [1] it was 105 µM; in test [2], 160 µM.
Regarding `COc1ccc(C(C)NC[C@@H]2O[C@H](CO)[C@@H](O)[C@H](O)[C@H]2O)cc1O` (stereo partly specified), the concentration for half-maximal inhibition (IC50) worked out at 184 µM on Alpha-glucosidase MAL12 and 107 µM in test [1].
In the case of `OC[C@H]1O[C@@H](CNCc2cccs2)[C@H](O)[C@@H](O)[C@@H]1O`, the 50% inhibitory concentration (IC50) was found to be 374 µM at Alpha-glucosidase MAL12, 173 µM in test [1] and 324 µM in test [2].

Broadly, the IC50 is the midpoint of a concentration-inhibition curve. Usually Ki stands for the equilibrium dissociation constant of an inhibitor or competing ligand from its target.
